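Five compound concentrations were applied to cells in 96-well plates for 48 hours; endpoints were derived by simple linear interpolation of the resulting dose-response curve. GI50 is the concentration that inhibits growth by half. TGI denotes the concentration required for complete inhibition of growth.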
Columns and labels:
Experiment in all cases: growth of human tumour cells (NCI), 48 h
SK-MEL-28 melanoma = system: SK-MEL-28 melanoma
SF-539 CNS = system: SF-539 CNS
LOX IMVI melanoma = system: LOX IMVI melanoma
SK-MEL-5 melanoma = system: SK-MEL-5 melanoma
SNB-75 CNS = system: SNB-75 CNS
HCT-15 colon = system: HCT-15 colon
K-562 leukemia = system: K-562 leukemia
CAKI-1 renal = system: CAKI-1 renal
UACC-62 melanoma = system: UACC-62 melanoma
PC-3 prostate = system: PC-3 prostate

Compound | TGI (SK-MEL-28 melanoma) | TGI (SF-539 CNS) | TGI (LOX IMVI melanoma) | TGI (SK-MEL-5 melanoma) | TGI (SNB-75 CNS) | TGI (HCT-15 colon) | TGI (K-562 leukemia) | TGI (CAKI-1 renal) | TGI (UACC-62 melanoma) | GI50 (SK-MEL-28 melanoma) | GI50 (SF-539 CNS) | GI50 (LOX IMVI melanoma) | GI50 (SK-MEL-5 melanoma) | GI50 (SNB-75 CNS) | GI50 (HCT-15 colon) | GI50 (K-562 leukemia) | GI50 (CAKI-1 renal) | GI50 (UACC-62 melanoma) | GI50 (PC-3 prostate) | TGI (PC-3 prostate)
COc1ccc(-c2cc(=O)c3ccccc3o2)cc1N | > 100 µM | > 100 µM | > 100 µM | > 100 µM | 93.2 µM | > 100 µM | > 100 µM | > 100 µM | > 100 µM | – | – | – | – | – | – | – | – | – | – | –
CC(C)[O-].CC(C)[O-].O=C1C=C([O-])C(=O)c2ccccc21.O=C1C=C([O-])C(=O)c2ccccc21.[Ti+4] | > 100 µM | > 100 µM | > 100 µM | > 66.8 µM | > 100 µM | > 100 µM | > 100 µM | > 100 µM | > 100 µM | > 100 µM | > 100 µM | 5.21 µM | 6.32 µM | 17.5 µM | > 73.4 µM | > 89.4 µM | > 91.3 µM | 17.6 µM | – | –
O=C(CCc1nnc2s/c(=C\c3ccc(Cl)c(Cl)c3)c(=O)n12)Nc1ccc(Cl)c(Cl)c1 | > 100 µM | > 100 µM | 39 µM | > 100 µM | > 100 µM | > 100 µM | > 100 µM | > 100 µM | > 100 µM | – | – | – | – | – | – | – | – | – | – | –
O=C(Nc1ccc(Cl)cc1Cl)C1C(=O)C(=O)N(c2ccc(Cl)cc2Cl)C1=O (centres undefined) | > 100 µM | > 100 µM | > 100 µM | > 100 µM | > 100 µM | > 100 µM | – | > 100 µM | > 100 µM | – | – | – | – | – | – | – | – | – | – | –
C=C(C)[C@@H]1CC[C@]2(C(=O)O)CC[C@]3(C)[C@H](CC[C@@H]4[C@@]5(C)CCC(NC(=O)c6cccc(OC(C)=O)c6OC(C)=O)C(C)(C)[C@@H]5CC[C@]43C)[C@@H]12 (some centres undefined) | 3.03 µM | 2.5 µM | 1.74 µM | 1.67 µM | 5.44 µM | 3.73 µM | > 45.7 µM | 2.24 µM | 0.618 µM | 0.46 µM | 0.576 µM | 0.488 µM | 0.48 µM | 0.452 µM | 0.418 µM | 0.332 µM | 0.371 µM | 0.209 µM | – | –
COc1ccc2c3c([nH]c2c1[N+](=O)[O-])C(C)N(Cc1ccc([N+](=O)[O-])cc1)CC3 (centres undefined) | 44.5 µM | > 100 µM | 26.8 µM | – | – | 54.9 µM | 77.1 µM | 32.5 µM | 52.4 µM | – | – | – | – | – | – | – | – | – | – | –
COc1cc(OC)c(SSCCCCS(=O)O)c(OC)c1 | 29.7 µM | 29.5 µM | 29 µM | 22.3 µM | 25.4 µM | 34.2 µM | 89.3 µM | – | 27.9 µM | – | – | – | – | – | – | – | – | – | – | –
CCOc1ccc(N=Cc2ccc3cc(C)ccc3n2)cc1 | > 100 µM | > 100 µM | > 100 µM | > 100 µM | > 100 µM | > 100 µM | 69.8 µM | > 100 µM | > 100 µM | – | – | – | – | – | – | – | – | – | – | –
C/C=C1\C=C(OC)CN(CCc2c[nH]c3ccccc23)C1 | – | > 100 µM | > 100 µM | 53.3 µM | > 100 µM | > 100 µM | > 100 µM | – | > 100 µM | – | – | – | – | – | – | – | – | – | – | –
CCN(CC)CCCNC(=O)C1COc2cc(-c3cc(=O)c4ccccc4o3)ccc2O1 (centres undefined) | 40.8 µM | 38.9 µM | 48.2 µM | 37.6 µM | > 100 µM | > 100 µM | > 100 µM | > 100 µM | > 100 µM | – | – | – | – | – | – | – | – | – | – | –
Cc1ccccc1NC(=O)c1c(C)oc2c1C(=O)c1ccccc1C2=O | > 100 µM | > 68.5 µM | 41.3 µM | 27.1 µM | > 100 µM | > 74.8 µM | 57.9 µM | > 100 µM | 49.8 µM | – | – | – | – | – | – | – | – | – | – | –
Nc1c2c(c(O)c3c1=C(CO)C=N3)=NCCS2 | 0.804 µM | 0.301 µM | – | 0.0543 µM | 0.306 µM | 0.381 µM | 0.682 µM | – | 0.33 µM | 0.283 µM | 0.165 µM | – | 0.0215 µM | 0.168 µM | 0.166 µM | 0.243 µM | – | 0.156 µM | 0.287 µM | 1.05 µM
COc1cc2c(cc1OC)-c1ccc3cc4c(cc3c1N(CCCn1ccnc1)C2)OCO4 | 17.7 µM | 7.36 µM | 4.7 µM | 10.2 µM | 19.6 µM | > 100 µM | – | – | 2.72 µM | 3.74 µM | 2.11 µM | 1.62 µM | 2.22 µM | 1.75 µM | 58.3 µM | – | – | 0.67 µM | 4.18 µM | 36.7 µM
Cc1ccc(NC2=C(Cl)C(=O)N(Cc3ccc(Cl)cc3)C2=O)cc1O | 44.4 µM | 16.2 µM | 32.1 µM | 28 µM | – | – | > 100 µM | 18 µM | 39.4 µM | 14.8 µM | 3.1 µM | 4.09 µM | 12.6 µM | – | – | 61.8 µM | 2.79 µM | 17.5 µM | 5.5 µM | 35.6 µM
Cn1nc(-c2ccccc2)c(C(=O)/C=C/c2ccc(Cl)cc2)c(N2CCCCC2)c1=O | 14.3 µM | 2.98 µM | 6.09 µM | 3.75 µM | – | 15 µM | 5.39 µM | 3.94 µM | 5.82 µM | – | – | – | – | – | – | – | – | – | – | –
CCOC(=O)N1c2c(ccn2C)-c2ccn(C)c2N1C(=O)OCC | – | 38.2 µM | 25.6 µM | > 100 µM | 33.7 µM | 26.5 µM | 42.4 µM | 44.8 µM | 31.3 µM | – | – | – | – | – | – | – | – | – | – | –
O=C1O[C@H](c2ccccc2)[C@@H]2CC3(CCN12)OCCO3 | > 100 µM | > 100 µM | > 100 µM | > 100 µM | – | > 100 µM | > 100 µM | > 100 µM | > 100 µM | – | – | – | – | – | – | – | – | – | – | –
CC(=O)OC[C@]1(C)CCCC2(C)C1CCC1C=C(C)[C@H]3CCC12C3 (some centres undefined) | > 100 µM | 66.8 µM | > 100 µM | > 100 µM | 93.2 µM | > 100 µM | > 100 µM | > 100 µM | > 100 µM | – | – | – | – | – | – | – | – | – | – | –
CC(C)(C)CC(C)(C)c1cc2c(O)c(c1)Cc1cc(C(C)(C)CC(C)(C)C)cc(c1O)Cc1cc(C(C)(C)CC(C)(C)C)cc(c1O)Cc1cc(C(C)(C)CC(C)(C)C)cc(c1O)Cc1cc(C(C)(C)CC(C)(C)C)cc(c1O)C2 | > 100 µM | > 100 µM | – | > 100 µM | > 100 µM | > 100 µM | > 100 µM | – | > 100 µM | – | – | – | – | – | – | – | – | – | – | –

Source: PubChem BioAssay (NCI)
